Data set [1] in a line: Microsomal stability, human liver microsomes. The class given is in vitro ADME. The following applies: residual amount % after 1 hour, 37° C., 5 μM, 1 mg/ml microsomes, NADPH regenerating system. The protocol:
To confirm the reactivity of the test substances with intra-hepatic CYP450 enzymes, 5 μM test substances and 1 mg/ml human liver microsomes were incubated for 1 hour at a temperature of 37° C. in the presence of an NADPH regenerating system. After 1 hour, acetonitrile was added to terminate the reaction, and the supernatant obtained by centrifugation was analyzed by HPLC. The remaining amount % was calculated using the following equation using the value of the reacted sample for 1 hour relative to the value of the 0-minute sample as the peak value obtained as an analysis result. (Peak value of the sample reacted for 1 hour/peak value of the sample at 0 minutes)×100=residual amount %
(Liver microsomes are a subcellular fraction often used to study metabolism.)

The nature of data set [2]: Microsomal stability, mice microsomes. The class given is in vitro ADME. As to conditions: residual amount % after 1 hour, 37° C., 5 μM, NADPH regenerating system.
For data set [3], the target named is SYK (Homo sapiens (Human), UniProt P43405). The experiment in a line: z-LYTE kinase assay, SYK. The format is biochemical. The following applies: compound concentration 100 nM. The protocol: The SYK inhibitory activity of the compounds was evaluated based on z-LYTE technology developed by Thermo Fisher Scientific Inc. According to this evaluation method, signals of the fluorescence of FRET-peptides are measured, wherein fluorescence of a FRET-peptide which is phosphorylated by the […] and fluorescence of a non-phosphorylated peptide are measured to identify an activity with respect to kinase. […] The background signal was measured in the absence of proteins; a non-inhibitory signal was measured only when the solvent (1% DMSO) was added; and an evaluation compound was used at a concentration of 100 nM to calculate the SYK inhibitory activity of the evaluation compound as a percentage (%).

In data set [4] the test system is MOLM-13. The experiment in a line: Cell growth inhibition (MTS), MOLM-13. The format is cell-based. As to conditions: Homo sapiens, MOLM-13, 72 h, incubation three days. On the procedure: (§1) The human acute myelogenous leukemia […] cell line MOLM-13 (DSMZ no. ACC 554) was incubated in RPM11640 medium supplemented with 20% heat-inactivated FBS at a temperature of 37° C. The incubated cell line was prepared in an amount of 2.0×10^4 cells/100 μL, and then plated on a 96-well plate. The RPMI1640 medium was serially diluted with the test compounds at a concentration in a range of 1 μM to 0.01 nM at a ratio of 1:10. Subsequently, incubation was performed thereon for three days. For the human acute myelogenous leukemia cell line MV-4-11 cell line (ATCC® CRL-9591™), the cells were incubated at a temperature of 37° C. in IMDM medium supplemented with 10% FBS. The incubated cell line was prepared in an amount of 2×10^4 cells/100 μL, and then plated on a 96-well plate. The IMDM medium was treated with cascade dilution of three test compounds at a concentration in a range of 1 μM to 0.01 nM at a rate of 1/10. Subsequently, incubation was performed thereon for three days. MTS test was performed to measure cell viability, and the growth inhibition (GI50) value of the cell line was calculated using GraphPad Prism software.

Data set [5] concerns the target VEGFR2 (KDR) (Homo sapiens (Human), UniProt P35968). The data set can be described thus: z-LYTE kinase assay, VEGFR2. The class given is biochemical. As to conditions: compound concentration 100 nM.
Data set [6] relates to MV-4-11. The data set can be described thus: Cell growth inhibition (MTS), MV-4-11. The following applies: Homo sapiens, MV4-11, 72 h, incubation three days. The class given is cell-based. On the procedure:
as §1

In data set [7] the target is FLT3 ITD (Homo sapiens, UniProt P36888, ITD). The data set can be described thus: LanthaScreen kinase binding assay, FLT3 ITD. On the technique in general: TR-FRET usually uses a lanthanide donor and a delayed reading to cut background.
Sequence of FLT3 ITD (P36888 whole entry, looked up, stated change not applied): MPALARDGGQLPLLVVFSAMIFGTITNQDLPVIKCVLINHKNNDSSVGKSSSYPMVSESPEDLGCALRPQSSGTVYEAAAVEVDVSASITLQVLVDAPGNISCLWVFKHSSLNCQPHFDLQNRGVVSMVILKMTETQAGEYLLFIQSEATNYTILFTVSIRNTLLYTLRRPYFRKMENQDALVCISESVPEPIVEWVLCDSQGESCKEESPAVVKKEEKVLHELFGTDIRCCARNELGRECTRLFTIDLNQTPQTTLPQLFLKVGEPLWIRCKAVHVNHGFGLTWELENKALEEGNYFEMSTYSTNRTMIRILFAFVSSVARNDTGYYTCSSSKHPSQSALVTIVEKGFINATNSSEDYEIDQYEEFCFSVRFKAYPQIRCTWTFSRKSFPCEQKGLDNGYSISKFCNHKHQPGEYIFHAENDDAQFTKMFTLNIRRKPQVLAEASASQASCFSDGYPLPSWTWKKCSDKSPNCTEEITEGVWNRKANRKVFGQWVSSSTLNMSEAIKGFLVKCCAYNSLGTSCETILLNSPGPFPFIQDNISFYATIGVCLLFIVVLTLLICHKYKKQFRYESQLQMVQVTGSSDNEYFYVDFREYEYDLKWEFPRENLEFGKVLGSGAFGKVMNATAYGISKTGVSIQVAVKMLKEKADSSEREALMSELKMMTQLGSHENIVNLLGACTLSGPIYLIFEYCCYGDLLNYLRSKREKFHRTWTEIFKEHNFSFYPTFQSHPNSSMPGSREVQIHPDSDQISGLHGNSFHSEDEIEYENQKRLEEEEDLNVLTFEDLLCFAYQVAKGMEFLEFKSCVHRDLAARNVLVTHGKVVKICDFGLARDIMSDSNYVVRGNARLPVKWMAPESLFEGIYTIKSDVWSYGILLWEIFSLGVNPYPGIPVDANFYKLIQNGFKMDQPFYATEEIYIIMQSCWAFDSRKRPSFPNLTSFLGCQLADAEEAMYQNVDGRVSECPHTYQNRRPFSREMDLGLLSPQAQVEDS
Protocol: (§2) The inhibitory activity of some of the compounds described above against FLT3-ITD, FLT3 wild type (WT), VEGFR2 (KDR), and SYK kinase was measured.
(§3) This experiment was carried out on a 384-well plate in conditions including 50 mM HEPES pH 7.5, 0.01% BRIJ-35, 10 mM MgCl2, 1 mM EGTA, and 1% DMSO.
Data set [8] concerns the target FLT3 WT (Homo sapiens (Human), UniProt P36888). The data set can be described thus: LanthaScreen kinase binding assay, FLT3 WT. As to conditions: kinase tracer-236, 50 nM to 0.05 nM.
Protocol: as §2, §3
A short description of data set [9]: Pharmacokinetic profile in mice (p.o. and i.v.). The class given is in vivo. The arrangement: AUC: concentration or dose not given beside the values. As to conditions: mouse, plasma. The protocol: After test substances were formulated by using the selected solvents, they were administered orally (p.o.) and intravenously (iv) once for each and a certain amount of blood was taken at a predetermined time, and plasma was isolated from the blood and a concentration analysis was performed thereon by LC-MS/MS. The AUC (drug concentration and an area under the curve) was calculated according to the linear-log trapezoidal summation formula by using the non-compartment analysis of the WinNonlin program through the plasma concentration curves over time. The bioavailability (BA) was calculated by applying the calculated AUC value to the following formula. BA (%)=(AUC p.o./AUC i.v.)×(Dose i.v./Dose p.o.)×100

Sequence of VEGFR2 (KDR) (P35968 20-1356): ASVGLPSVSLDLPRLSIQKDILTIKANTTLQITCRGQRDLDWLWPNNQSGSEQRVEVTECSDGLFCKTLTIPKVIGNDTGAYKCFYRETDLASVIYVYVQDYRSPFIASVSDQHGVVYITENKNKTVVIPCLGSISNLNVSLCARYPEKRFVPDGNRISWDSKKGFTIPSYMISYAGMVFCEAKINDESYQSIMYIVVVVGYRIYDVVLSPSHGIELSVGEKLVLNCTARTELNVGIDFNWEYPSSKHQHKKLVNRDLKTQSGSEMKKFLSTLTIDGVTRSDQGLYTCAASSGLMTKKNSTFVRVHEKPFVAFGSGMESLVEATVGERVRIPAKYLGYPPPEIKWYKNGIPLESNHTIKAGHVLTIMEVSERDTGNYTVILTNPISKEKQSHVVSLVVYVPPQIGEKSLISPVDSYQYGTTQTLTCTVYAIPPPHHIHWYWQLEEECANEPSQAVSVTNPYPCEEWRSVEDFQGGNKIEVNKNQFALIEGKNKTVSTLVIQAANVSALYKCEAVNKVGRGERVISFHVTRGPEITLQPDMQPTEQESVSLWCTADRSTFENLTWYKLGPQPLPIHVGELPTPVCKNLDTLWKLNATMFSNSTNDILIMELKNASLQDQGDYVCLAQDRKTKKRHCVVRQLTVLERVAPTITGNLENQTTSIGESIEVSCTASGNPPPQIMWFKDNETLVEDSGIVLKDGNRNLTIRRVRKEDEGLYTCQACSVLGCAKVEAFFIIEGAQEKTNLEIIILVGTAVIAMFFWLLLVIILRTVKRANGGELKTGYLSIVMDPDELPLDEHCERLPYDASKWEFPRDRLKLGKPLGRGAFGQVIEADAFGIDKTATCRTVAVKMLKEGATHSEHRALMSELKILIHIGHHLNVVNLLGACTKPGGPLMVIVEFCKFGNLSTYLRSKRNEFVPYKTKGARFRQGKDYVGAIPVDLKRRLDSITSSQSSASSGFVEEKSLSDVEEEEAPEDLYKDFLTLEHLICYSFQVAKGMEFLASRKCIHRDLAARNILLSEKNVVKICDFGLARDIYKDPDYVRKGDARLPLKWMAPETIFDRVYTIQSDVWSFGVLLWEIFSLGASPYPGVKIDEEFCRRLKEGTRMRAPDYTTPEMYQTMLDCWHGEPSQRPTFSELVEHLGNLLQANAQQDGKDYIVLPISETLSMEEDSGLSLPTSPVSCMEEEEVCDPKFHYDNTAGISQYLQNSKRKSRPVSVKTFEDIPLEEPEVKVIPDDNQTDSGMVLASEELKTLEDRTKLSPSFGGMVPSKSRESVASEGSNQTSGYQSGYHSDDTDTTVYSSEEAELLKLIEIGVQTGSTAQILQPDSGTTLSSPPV
Sequence of FLT3 WT (P36888 27-993): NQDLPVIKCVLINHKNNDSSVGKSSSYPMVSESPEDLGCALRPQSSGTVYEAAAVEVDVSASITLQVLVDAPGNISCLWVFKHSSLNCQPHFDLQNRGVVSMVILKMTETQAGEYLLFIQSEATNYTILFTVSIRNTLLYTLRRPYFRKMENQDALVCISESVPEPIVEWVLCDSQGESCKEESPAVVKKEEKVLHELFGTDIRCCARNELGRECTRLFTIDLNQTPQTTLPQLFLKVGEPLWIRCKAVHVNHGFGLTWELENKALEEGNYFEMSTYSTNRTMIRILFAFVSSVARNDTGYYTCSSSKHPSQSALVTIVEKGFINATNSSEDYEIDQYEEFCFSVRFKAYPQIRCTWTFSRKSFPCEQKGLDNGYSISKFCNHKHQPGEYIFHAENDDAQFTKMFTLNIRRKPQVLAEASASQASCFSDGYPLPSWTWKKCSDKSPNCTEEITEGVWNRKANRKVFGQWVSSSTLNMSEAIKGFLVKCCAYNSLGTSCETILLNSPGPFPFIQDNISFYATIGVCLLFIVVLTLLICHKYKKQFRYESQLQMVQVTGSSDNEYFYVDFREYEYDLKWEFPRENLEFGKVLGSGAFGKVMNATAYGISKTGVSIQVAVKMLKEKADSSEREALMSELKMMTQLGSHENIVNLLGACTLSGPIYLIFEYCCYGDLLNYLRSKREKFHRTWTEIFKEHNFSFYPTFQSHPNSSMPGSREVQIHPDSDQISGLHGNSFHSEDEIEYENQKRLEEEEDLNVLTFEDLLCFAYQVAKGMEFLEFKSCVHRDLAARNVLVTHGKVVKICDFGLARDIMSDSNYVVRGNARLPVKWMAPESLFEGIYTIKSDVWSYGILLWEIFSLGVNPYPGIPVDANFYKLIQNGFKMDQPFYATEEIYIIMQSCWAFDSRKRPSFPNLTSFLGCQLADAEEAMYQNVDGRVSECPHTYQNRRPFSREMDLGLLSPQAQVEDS

As to `CCN(CC)C1CCN(c2cc(Nc3ncc(Cl)c(-c4c[nH]c5cc(C)ccc45)n3)cc(C3CC3)c2)CC1` [Control Compound 6, reference compound], in data set [1], the “Human microsomal stability (%)” value was found to be 49%. Further, in data set [2], the “Mice microsomal stability (%)” value is given as 29%.
A word on the inhibition: it is the drop in the measured response relative to a control, in per cent. In general, GI50 refers to the concentration at which growth is held to half of that of the control. Take `C[C@@H]1CN(Cc2cc(Nc3ncc(Cl)c(-c4c[nH]c5cc(F)ccc45)n3)cc(C3CC3)c2)C[C@H](C)N1` [Example 1, 5-chloro-N-(3-cyclopropyl-5-(((3R,5S)-3,5-dimethylpiperazine-1-yl)methyl)phenyl)-4-(6-fluoro-1H-indole-3-yl)pyrimidine-2-amine]: the figures for the inhibition at 0.1 µM in data set [3] and in data set [5] were 73% and 95%, respectively. The concentration for 50% growth inhibition (GI50) in data set [4] came out at 4 nM; in data set [6], 1.2 nM.
The term IC50 denotes the concentration that gives 50% inhibition. Turning to `Cc1ccc2c(-c3nc(Nc4cc(CN5C[C@@H](C)N(CCO)[C@@H](C)C5)cc(C5CC5)c4)ncc3Cl)c[nH]c2c1` [Example 5, 2-((2R,6S)-4-(3-((5-chloro-4-(6-methyl-1H-indole-3-yl)pyrimidine-2-yl)amino)-5-cyclopropylbenzyl)-2,6-dimethylpiperazine-1-yl)ethane-1-ol], the inhibition at 0.1 µM in [3] was determined as 78%; in data set [5], 71%. In addition, the GI50 in [4] was determined as 0.8 nM; in [6], 0.5 nM. This molecule registered an IC50 in data set [7] of 7.2 nM.
With `Cc1ccc2c(-c3nc(Nc4cc(CN5C[C@@H](C)N[C@@H](C)C5)cc(C5CC5)c4)ncc3Cl)c[nH]c2c1` [Example 8, 5-chloro-N-(3-cyclopropyl-5-(((3R,5S)-3,5-dimethylpiperazine-1-yl)methyl)phenyl)-4-(6-methyl-1H-indole-3-yl)pyrimidine-2-amine], the figures for the inhibition at 0.1 µM in data set [3] and in data set [5] were 95% and 100%, respectively. In addition, the values for the GI50 in data set [4] and in data set [6] were 5.2 nM and 1.3 nM, respectively.
As usually defined, the AUC is concentration integrated over time. Broadly, the bioavailability is dose-corrected exposure relative to a reference, in per cent. `Cc1ccc2c(-c3nc(Nc4cc(CN5C[C@@H](C)NC(C)(C)C5)cc(C5CC5)c4)ncc3Cl)c[nH]c2c1` [Example 25, (R)-5-chloro-N-(3-cyclopropyl-5-((3,3,5-trimethylpiperazine-1-yl)methyl)phenyl)-4-(6-methyl-1H-indole-3-yl)pyrimidine-2-amine]: the GI50 in [4] is 8.5 nM; in data set [6], 9.3 nM. For the same molecule, the values for the IC50 in [7] and in data set [8] were 20 nM and 2.3 nM, respectively. For the same molecule, in data set [9] (LC-MS/MS, non-compartment analysis, read-out: Area under the curve (AUC) of mice), the AUC is 21800 ng·h/mL. The molecule further registered a bioavailability in [9] (po, BA=(AUC p.o./AUC i.v.)×(Dose i.v./Dose p.o.)×100) of 21.2%.
In the case of `Cc1ccc2c(-c3nc(Nc4cc(CN5C[C@H](CO)N[C@H](C)C5)cc(C5CC5)c4)ncc3Cl)c[nH]c2c1` [Example 26, ((2R,6R)-4-(3-((5-chloro-4-(6-methyl-1H-indole-3-yl)pyrimidine-2-yl)amino)-5-cyclopropylbenzyl)-6-methylpiperazine-2-yl)methanol], the GI50 in [4] was 6.1 nM; in data set [6], 22 nM. The IC50 in data set [7] amounted to 2.3 nM; in data set [8], 1.5 nM.
Turning to `Cc1ccc2c(-c3nc(Nc4cc(CN5C[C@@H](C)NC6(CC6)C5)cc(C5CC5)c4)ncc3Cl)c[nH]c2c1` [Example 27, (R)-5-chloro-N-(3-cyclopropyl-5-((5-methyl-4,7-diazaspiro[2.5]octan-7-yl)methyl)phenyl)-4-(6-methyl-1H-indole-3-yl)pyrimidine-2-amine], the “Human microsomal stability (%)” value in [1] is 72%. In addition, the “Mice microsomal stability (%)” value in [2] worked out at 69%.

The values above are taken from patent US10870639B2, “Pyrimidine compounds and pharmaceutical compositions for preventing or treating cancers including the same” (HANMI PHARM. CO., LTD., priority 2018, dated 2020).
